Source: paper PMC4565880, “Purification and characterization of a novel β-carotene-9′,10′-oxygenase from Saccharomyces cerevisiae ULI3” (Biotechnology Letters, 2015)

Tested on: T1, ScBCO2 (β-carotene-9′,10′-oxygenase)
T1 construct: native enzyme purified from culture supernatant (ammonium sulfate, Q Sepharose, Superdex-200); ~50 kDa by SDS-PAGE; peptide mass fingerprint matched no database entry
Experiment: HPLC cleavage assay; Hanes-Woolf plot
Type: biochemical, Saccharomyces cerevisiae
Details: standard assay: 100 mM Tricine/KOH pH 8.0, 37 °C, 12.5 μM Fe2SO4, Tween 40; temperature of kinetic runs not stated; substrate 10-800 μM
Excerpt: HPLC cleavage assay; Hanes-Woolf plot on ScBCO2 (β-carotene-9′,10′-oxygenase)

Km [µM]	Structure (SMILES)
105 ± 0.3	CC1=C[C@H](O)CC(C)(C)[C@H]1/C=C/C(C)=C/C=C/C(C)=C/C=C/C=C(C)/C=C/C=C(C)/C=C/C1=C(C)C[C@@H](O)CC1(C)C [Lutein]
48 ± 0.3	CC1=CCCC(C)(C)[C@H]1/C=C/C(C)=C/C=C/C(C)=C/C=C/C=C(C)/C=C/C=C(C)/C=C/C1=C(C)CCCC1(C)C [α-carotene]
37 ± 0.2	CC1=C(/C=C/C(C)=C/C=C/C(C)=C/C=C/C=C(C)/C=C/C=C(C)/C=C/C2=C(C)CCCC2(C)C)C(C)(C)CCC1 [β-carotene]
